Experiments:
Experiment in all cases: viability relative to DMSO control (fraction); higher = less drug effect (more viable cells)
Details in all cases: 48 h
[1] = test system: primary T-NHL patient cells (S058)
Outline: (§1)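 Primary mononuclear tumour cells (Ficoll-isolated from blood or bone marrow, or processed lymph node; fresh or cryopreserved) were plated at 4 × 10^4 cells per well in 384-well plates with pre-plated compounds at five concentrations, one well each. Medium was RPMI-1640 with penicillin/streptomycin, L-glutamine and human serum, at 37 °C and 5% CO2 for 48 h. Viability was read as CellTiter-Glo luminescence relative to the median of 16 inner DMSO wells.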

[2] = test system: primary MCL patient cells (S068)
Outline: as §1

[3] = test system: primary AML patient cells (S006)
Outline: as §1

[4] = test system: primary AML patient cells (S007)
Outline: as §1

[5] = test system: primary AML patient cells (S056)
Outline: as §1

[6] = test system: primary AML patient cells (S081)
Outline: as §1

[7] = test system: primary AML patient cells (S085)
Outline: as §1

[8] = test system: primary AML patient cells (S037)
Outline: as §1

[9] = test system: primary AML patient cells (S011)
Outline: as §1

[10] = test system: primary CLL patient cells (S043)
Outline: as §1

[11] = test system: primary BL patient cells (S005)
Outline: as §1

[12] = test system: primary DLBCL patient cells (S076)
Outline: as §1

[13] = test system: primary AML patient cells (S012)
Outline: as §1

[14] = test system: primary DLBCL patient cells (S049)
Outline: as §1

[15] = test system: primary MCL patient cells (S063)
Outline: as §1

[16] = test system: primary CLL patient cells (S031)
Outline: as §1

[17] = test system: primary MCL patient cells (S041)
Outline: as §1

[18] = test system: primary T-PLL patient cells (S008)
Outline: as §1

SMILES: O=C(Nc1nc2ccccc2n1CCN1CCOCC1)c1cccc([N+](=O)[O-])c1 [IRAK-1/4 INHIBITOR I]
- viability ([1]; 0.016 µM): 1.05
- viability ([1]; 0.08 µM): 1.25
- viability ([1]; 0.4 µM): 1.02
- viability ([1]; 2 µM): 1.07
- viability ([1]; 10 µM): 1.27
- viability ([2]; 0.016 µM): 0.977
- viability ([2]; 0.08 µM): 0.997
- viability ([2]; 0.4 µM): 1.13
- viability ([2]; 2 µM): 1.27
- viability ([2]; 10 µM): 1.41
- viability ([3]; 0.016 µM): 0.952
- viability ([3]; 0.08 µM): 0.975
- viability ([3]; 0.4 µM): 0.887
- viability ([3]; 2 µM): 0.751
- viability ([3]; 10 µM): 0.691
- viability ([4]; 0.016 µM): 1.01
- viability ([4]; 0.08 µM): 0.989
- viability ([4]; 0.4 µM): 0.788
- viability ([4]; 2 µM): 0.469
- viability ([4]; 10 µM): 0.292
- viability ([5]; 0.016 µM): 0.693
- viability ([5]; 0.08 µM): 1.13
- viability ([5]; 0.4 µM): 0.585
- viability ([5]; 2 µM): 0.817
- viability ([5]; 10 µM): 0.783
- viability ([6]; 0.016 µM): 0.864
- viability ([6]; 0.08 µM): 0.93
- viability ([6]; 0.4 µM): 0.907
- viability ([6]; 2 µM): 0.93
- viability ([6]; 10 µM): 0.915
- viability ([7]; 0.016 µM): 0.957
- viability ([7]; 0.08 µM): 0.985
- viability ([7]; 0.4 µM): 1.05
- viability ([7]; 2 µM): 1.04
- viability ([7]; 10 µM): 1.02
- viability ([8]; 0.016 µM): 0.878
- viability ([8]; 0.08 µM): 0.933
- viability ([8]; 0.4 µM): 0.895
- viability ([8]; 2 µM): 0.885
- viability ([8]; 10 µM): 1.02
- viability ([9]; 0.016 µM): 0.949
- viability ([9]; 0.08 µM): 0.934
- viability ([9]; 0.4 µM): 0.972
- viability ([9]; 2 µM): 1.11
- viability ([9]; 10 µM): 0.878
- viability ([10]; 0.016 µM): 0.825
- viability ([10]; 0.08 µM): 0.885
- viability ([10]; 0.4 µM): 0.838
- viability ([10]; 2 µM): 0.845
- viability ([10]; 10 µM): 0.861
- viability ([11]; 0.016 µM): 1.02
- viability ([11]; 0.08 µM): 1.09
- viability ([11]; 0.4 µM): 1.04
- viability ([11]; 2 µM): 0.984
- viability ([11]; 10 µM): 1.09
- viability ([12]; 0.016 µM): 0.94
- viability ([12]; 0.08 µM): 1.09
- viability ([12]; 0.4 µM): 1.01
- viability ([12]; 2 µM): 1
- viability ([12]; 10 µM): 1.11
- viability ([13]; 0.016 µM): 0.922
- viability ([13]; 0.08 µM): 0.993
- viability ([13]; 0.4 µM): 0.908
- viability ([13]; 2 µM): 0.954
- viability ([13]; 10 µM): 0.964
- viability ([14]; 0.016 µM): 0.936
- viability ([14]; 0.08 µM): 0.955
- viability ([14]; 0.4 µM): 0.834
- viability ([14]; 2 µM): 0.833
- viability ([14]; 10 µM): 0.821
- viability ([15]; 0.016 µM): 0.993
- viability ([15]; 0.08 µM): 0.961
- viability ([15]; 0.4 µM): 1.02
- viability ([15]; 2 µM): 1.03
- viability ([15]; 10 µM): 1.11
- viability ([16]; 0.016 µM): 0.897
- viability ([16]; 0.08 µM): 0.91
- viability ([16]; 0.4 µM): 0.906
- viability ([16]; 2 µM): 0.861
- viability ([16]; 10 µM): 0.877
- viability ([17]; 0.016 µM): 0.947
- viability ([17]; 0.08 µM): 1.1
- viability ([17]; 0.4 µM): 0.955
- viability ([17]; 2 µM): 0.981
- viability ([17]; 10 µM): 0.993
- viability ([18]; 0.016 µM): 0.933
- viability ([18]; 0.08 µM): 1
- viability ([18]; 0.4 µM): 0.935
- viability ([18]; 2 µM): 0.954
- viability ([18]; 10 µM): 1.03

SMILES: O=C(O)CSc1cc(NS(=O)(=O)c2ccc(Br)cc2)c2ccccc2c1O [UMI-77]
- viability ([2]; 0.024 µM): 0.957
- viability ([2]; 0.12 µM): 0.817
- viability ([2]; 0.6 µM): 0.767
- viability ([2]; 3 µM): 0.666
- viability ([2]; 15 µM): 0.318
- viability ([3]; 0.024 µM): 1.07
- viability ([3]; 0.12 µM): 1.04
- viability ([3]; 0.6 µM): 0.979
- viability ([3]; 3 µM): 1.01
- viability ([3]; 15 µM): 0.467
- viability ([4]; 0.024 µM): 0.894
- viability ([4]; 0.12 µM): 0.94
- viability ([4]; 0.6 µM): 0.853
- viability ([4]; 3 µM): 0.973
- viability ([4]; 15 µM): 0.891
- viability ([5]; 0.024 µM): 0.838
- viability ([5]; 0.12 µM): 0.998
- viability ([5]; 0.6 µM): 0.836
- viability ([5]; 3 µM): 0.999
- viability ([5]; 15 µM): 0.434
- viability ([6]; 0.024 µM): 0.934
- viability ([6]; 0.12 µM): 0.984
- viability ([6]; 0.6 µM): 0.919
- viability ([6]; 3 µM): 0.812
- viability ([6]; 15 µM): 0.329
- viability ([7]; 0.024 µM): 0.887
- viability ([7]; 0.12 µM): 1.07
- viability ([7]; 0.6 µM): 0.905
- viability ([7]; 3 µM): 0.834
- viability ([7]; 15 µM): 1.53
- viability ([8]; 0.024 µM): 1.05
- viability ([8]; 0.12 µM): 1.04
- viability ([8]; 0.6 µM): 0.985
- viability ([8]; 3 µM): 0.978
- viability ([8]; 15 µM): 0.633
- viability ([9]; 0.024 µM): 0.457
- viability ([9]; 0.12 µM): 0.654
- viability ([9]; 0.6 µM): 0.618
- viability ([9]; 3 µM): 0.47
- viability ([9]; 15 µM): 0.227
- viability ([10]; 0.024 µM): 0.997
- viability ([10]; 0.12 µM): 0.981
- viability ([10]; 0.6 µM): 0.974
- viability ([10]; 3 µM): 0.979
- viability ([10]; 15 µM): 0.748
- viability ([11]; 0.024 µM): 0.92
- viability ([11]; 0.12 µM): 0.902
- viability ([11]; 0.6 µM): 0.783
- viability ([11]; 3 µM): 0.812
- viability ([11]; 15 µM): 0.276
- viability ([13]; 0.024 µM): 1.07
- viability ([13]; 0.12 µM): 1.06
- viability ([13]; 0.6 µM): 1.09
- viability ([13]; 3 µM): 1.04
- viability ([13]; 15 µM): 0.715
- viability ([15]; 0.024 µM): 1.06
- viability ([15]; 0.12 µM): 1.05
- viability ([15]; 0.6 µM): 0.974
- viability ([15]; 3 µM): 0.963
- viability ([15]; 15 µM): 0.701
- viability ([16]; 0.024 µM): 0.84
- viability ([16]; 0.12 µM): 0.875
- viability ([16]; 0.6 µM): 0.886
- viability ([16]; 3 µM): 0.878
- viability ([16]; 15 µM): 0.73
- viability ([17]; 0.024 µM): 0.968
- viability ([17]; 0.12 µM): 0.986
- viability ([17]; 0.6 µM): 0.955
- viability ([17]; 3 µM): 0.929
- viability ([17]; 15 µM): 0.331
- viability ([18]; 0.024 µM): 0.976
- viability ([18]; 0.12 µM): 0.968
- viability ([18]; 0.6 µM): 0.91
- viability ([18]; 3 µM): 0.948
- viability ([18]; 15 µM): 0.815
